Where a name gives a salt, the structure may show the parent alone. Read-outs that look alike come from different tables or passages of the source.
Columns and labels:
[1] = tested on: Aβ1-42; assay: Aβ1-42 content in conditioned medium of primary cortico-hippocampal neuron cultures from Tg2576 mice (ELISA; primary and secondary dose-response screening); assay type: cell-based, mouse; details: for activity at 100 µM: 24 h, read-out: Ab1-42 (% of ctl)
[2] = tested on: primary cortico-hippocampal neuron cultures
Description: (§4) For in vitro treatments drugs available from “The Spectrum Collection” in stocks of 10 mM in DMSO were applied directly to cultures to the desired concentrations (final 1% DMSO); control primary neuron cultures from Tg2576 embryos were treated with vehicle resulting in a final 1% DMSO.
(§5) Cell viability was assessed using a commercial available LDH assay kit according to the manufacture's instruction (Promega).

[3] = tested on: Aβ1-40; assay: Aβ1-40 content in conditioned medium of primary cortico-hippocampal neuron cultures from Tg2576 mice (ELISA; primary and secondary dose-response screening); assay type: cell-based, mouse; details: for activity at 100 µM: 24 h, read-out: Ab1-40 (% of ctl)
Procedure, shortened: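 Primary cortico-hippocampal neurons from embryonic Tg2576 mice were plated at 1.0×10^5 cells per well on poly-D-lysine-coated 96-well plates in Neurobasal with 2% B27, 0.5 mM L-glutamine and 1% penicillin-streptomycin. Cultures received drug in 1% DMSO, and Aβ1-40 in the conditioned medium was measured by BioSource ELISA 24 hours after treatment, relative to vehicle controls.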

[4] = tested on: primary cortico-hippocampal neuron cultures; remark: listed apart in the source
[5] = tested on: Aβ1-42; assay: Aβ1-42 content in conditioned medium of primary cortico-hippocampal neuron cultures from Tg2576 mice (ELISA; primary and secondary dose-response screening); assay type: cell-based, mouse; details: for Ab1-42 (% of ctl) / activity at 100 µM: drug 100 μM; for reducing Aβ1-42: <85% of ctl; for activity at 100 µM: Mus musculus, Neuron, 24 h, read-out: Ab1-42 (% of ctl)
Procedure, shortened: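 This screen tested cardiovascular drugs for Aβ-lowering in Tg2576 embryonic cortico-hippocampal neuron cultures plated at 1.0×10^5 cells per well in poly-D-lysine-coated 96-well plates with Neurobasal/B27 medium. Drugs at 100 μM were added directly to the medium in duplicate, with 1% DMSO alone as the control. Conditioned medium was then collected, and its Aβ1-42 level was quantified with BioSource ELISA kits.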

[6] = tested on: Aβ1-42; details: Tg2576, short-term dosing, subclinical or clinical concentrations
Description: Cognitive behavioral function was assessed using the Morris water maze (MWM). After completion of the MWM test, blood pressure measurements were quantified as describe in FIG. 1 legends. Following MWM testing and blood pressure assessment, mice were sacrificed for neuropathological assessment. […] C, (inset), total immunoreactive APP content normalized to β-actin signal. In C-D, bar graphs represent group mean±SEM, n=6-10 mice per group.
(§1) FIG. 7. […] Bar graphs represent group mean±SEM, n=3 mice per group. 2-tailed t-test: *P<0.05.
(§2) Assessment of AD-type amyloid neuropathology in Tg2576 mice. For quantitative assessment of Aβ peptide in the brain, frozen pulverized tissue was homogenized in 5.0 M guanidine buffer, diluted (1:10) in phosphate-buffered saline containing 0.05% (v/v) Tween-20 and 1 mM Pefabloc protease inhibitors (Roche Biochemicals, Indianapolis, Ind.), and centrifuged for 20 min at 4° C. […] Serum Aβ content was analyzed using the same ELISA Kit, following manufacturer instructions.

[7] = tested on: Aβ1-42 and Aβ1-40; assay: Aβ1-42 and Aβ1-40 content in peripheral blood (plasma, serum) by ELISA; assay type: in vivo, mouse; details: for plasma Aβ1-42 levels (and Aβ1-40): Tg2576, doses ~3 fold lower than minimal hypertension dose; for plasma Aβ1-42 (and Aβ1-40): Tg2576, within the dosage range prescribed for hypertension
Description: as §1, §2

[8] = tested on: Tg2576 mice; assay: tolerability: body weight, fluid consumption, glucose tolerance; details: for fluid intake: Tg2576, short-term dosing
[9] = propranolol-HCL detection in brain and plasma (LC-MS); assay type: in vivo, mouse; details: Tg2576, 10 mg/kg/day in drinking water, three weeks
Description: In this short-term dosing study, Tg2576 mice were treated with propranolol-HCL for three-weeks at a concentration ˜3 fold lower than used for treatment of hypertension (10 mg/kg/day delivered in the drinking water). At the time of sacrifice, emicerebellum (pool from N=3 per group) was homogenized 0.4 M perchloric acid, centrifuged (3,000×g; 15 min), and the […] layer evaporated by heating (Botterblom et al., 1993), while the residual diethyl-ether and acidic aqueous layer was used for analysis. Plasma from propranolol-HCL treated mice (pooled, n=3 per group) was extracted using a modified protocol (Martin et al., 2004) mixing equal volumes of plasma in 0.1% NaOH. Propanolol-HCL was then extracted by ethyl acetate and centrifuged. The acidic […] layers were then dried, samples were analyzed by tandem liquid chromatography—mass spectrometry, and concentration was determined against an internal standard, in a range of quantification of n between 1-1,000 ng/ml.

[10] = molecular target: β-secretase (Mus musculus, UniProt P56818); details: Tg2576, propranolol-HCL, neocortex
Description: (§3) Brain samples were homogenized in supplied buffers. Homogenate was then added to secretase-specific APP peptide conjugated to the reporter molecules EDANS and DABCYL. […] Cleavage of APP peptide by secretase physically separates the EDANS and DABCYL reporter molecules, allowing for the release of a fluorescent signal. The level of secretase enzymatic activity is proportional to the fluorometric reaction in the homogenate (R & D Systems).

[11] = tested on: γ-secretase; details: Tg2576, propranolol-HCL, neocortex
Description: as §3

[12] = tested on: α-secretase; details: Tg2576, propranolol-HCL, neocortex
Description: as §3

[13] = tested on: Aβ peptides; assay: Aβ peptide profile in the brain by IP-MS; details: Tg2576, 10 or 60 mg/Kg/day, 3 weeks
[14] = tested on: Tg2576 mice; assay: blood pressure (systolic, diastolic, MAP) by tail-cuff; assay type: in vivo, mouse
Description: FIG. 1 Tg2576 mice are characterized by normal blood pressure under basal conditions. Baseline measurements of systolic, diastolic blood pressure, and mean arteriole blood pressure (MAP) in ˜11 month old female Tg2576 mice. Strain-, age-, gender-matched WT mice were measured using a commercial blood pressure analysis system designed specifically for small rodents (Hatteras Instruments, NC). Following manufacturer's instruction, mice were temporarily immobilized in a restraining chamber and an inflated tail-cuff wrapped around the tail was used to measure the systolic pressure, diastolic pressure, and MAP. Each blood pressure determination was calculated as the mean of 10 individual measurements per animal (n=6-10 group).
FIG. 6A-C show body weight of mice in response to ˜3 weeks of treatment. […] FIG. 6D-F show the assessment of systolic, diastolic, and MAP blood pressure in Tg2576 mice in response to drug doses below or within the range of those prescribed in hypertension. Blood pressure measurements were conducted using a commercial blood pressure analysis system designed specifically for small rodents (Hatteras Instruments, NC). Following manufacturer's instruction, mice were temporarily immobilized in a restraining chamber and an inflated tail-cuff wrapped around the tail was used to measure pressures. Each blood pressure determination was calculated as the mean of 10 individual measurements per animal. In A-F, values represent mean±SEM values, n=3-5 mice per group. 2-tailed t-test: *P<0.05.
Assessment of blood pressure and glucose utilization. Mouse blood pressure was routinely recorded using a commercial blood pressure analysis system designed specifically for small rodents (Hatteras Instruments, NC). […] Briefly, mice were given a single dose of glucose post-prandially (i.p. 2 g/kg body weight). Blood was collected from the tail-vein periodically over a 2-hour period. Blood glycemic content was assessed using the OneTouch LifeScan System, (LifeScan, Milpitas, Calif.) following the manufacturer's instruction.

[15] = tested on: primary cortico-hippocampal neuron cultures; assay: MTT in primary screening
[16] = tested on: primary cortico-hippocampal neuron cultures; assay: lactate dehydrogenase (LDH) activity assay in parallel neuron cultures
Description: as §4, §5

[17] = Mus musculus, primary screening, drug 100 μM, Tg2576 neuron cultures, table sorted by Aβ1-42
[18] = Primary Screening, drug 100 μM, table sorted by Aβ1-40
[19] = Primary Screening, table sorted by Aβ1-40
[20] = primary screening, drug 100 μM, Tg2576 neuron cultures, table sorted by Aβ1-42
[21] = primary screening, Tg2576 neuron cultures, table sorted by Aβ1-42
[22] = Tg2576, 3 weeks, doses within the range used for hypertension
[23] = Tg2576, 3 weeks, doses ~3 fold below the minimal hypertension dose
[24] = primary screening, table sorted by Aβ1-42

β-secretase, sequence (P56818 46-501): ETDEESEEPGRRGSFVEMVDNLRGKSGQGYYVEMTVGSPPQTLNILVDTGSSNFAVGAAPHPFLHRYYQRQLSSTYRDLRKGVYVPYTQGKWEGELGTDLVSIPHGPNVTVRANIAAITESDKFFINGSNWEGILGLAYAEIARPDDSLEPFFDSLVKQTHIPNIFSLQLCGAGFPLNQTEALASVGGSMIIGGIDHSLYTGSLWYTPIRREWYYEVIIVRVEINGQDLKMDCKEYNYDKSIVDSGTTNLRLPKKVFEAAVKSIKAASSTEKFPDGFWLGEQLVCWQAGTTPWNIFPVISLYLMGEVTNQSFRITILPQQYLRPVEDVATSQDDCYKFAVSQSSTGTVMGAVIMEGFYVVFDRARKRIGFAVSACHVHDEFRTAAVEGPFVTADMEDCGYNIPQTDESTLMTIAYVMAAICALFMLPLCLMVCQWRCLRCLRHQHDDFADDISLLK

CC(Cc1ccc(O)cc1)NCC(O)c1cc(O)cc(O)c1 (stereo not drawn) [Fenoterol Hydrobromide]
activity at 100 µM [1, 17]: 78.8% | LDH (% of ctl) ([2]; Tg2576, mouse): 104.3 % of ctl | activity at 100 µM [3, 17]: 89.3% | Ab1-40 (% of ctl) [3, 18]: 89.3 % of ctl | MTT (% of ctl) ([4]; Tg2576, mouse): 93.9 % of ctl | Ab1-42 (% of ctl) [5, 19]: 78.8 % of ctl | reducing Aβ1-42 ([5]; primary screening): useful in reducing Aβ1-42

CC(=O)[O-].CC(=O)[O-].[Cd+2] [Cadmium Acetate]
Ab1-42 (% of ctl) [1]: 3.8 % of ctl | reducing Aβ1-42 [1]: useful in reducing Aβ1-42 | LDH (% of ctl) [2]: 889.8 % of ctl | Ab1-40 (% of ctl) [3]: 29.5 % of ctl | reduced Aβ1-40 [3]: reduced Aβ1-40 | MTT (% of ctl) [4]: 29.1 % of ctl

Cl.NCCc1ccc(O)c(O)c1 [Dopamine Hydrochloride]
reducing Aβ1-42 [1]: useful in reducing Aβ1-42 | activity at 100 µM ([1]; Mus musculus, Neuron): 78.3% | LDH (% of ctl) ([2]; Tg2576, mouse): 559.5 % of ctl | reduced Aβ1-40 [3]: reduced Aβ1-40 | activity at 100 µM ([3]; Mus musculus, Neuron): 85% | MTT (% of ctl) ([4]; Tg2576, mouse): 95.7 % of ctl

CC(C)NCC(O)COc1cccc2ccccc12.Cl (racemic) [Propranolol Hydrochloride (+/−)]
steady state levels of Aβ1-42 in hippocampal formation or cerebral cortex [6]: significantly reduced steady state levels of Aβ1-42 | plasma Aβ1-42 levels (and Aβ1-40) [7]: prevented plasma accumulation of Aβ1-42 levels | plasma Aβ1-42 (and Aβ1-40) [7]: lowering responses were found | Ab1-40 (% of ctl) [3, 18]: 65.2 % of ctl | reduced Aβ1-40 ([3]; primary screening, <85% of ctl): reduced Aβ1-40 | Ab1-40 (% of ctl) [3, 20]: 65.2 % of ctl | fluid intake [8]: did not significantly influence the amount of fluid intake | tolerability (body weight) ([8]; Tg2576, short-term, 3 weeks, doses ~3 fold below or within hypertension range, drinking water): well-tolerated | level in the cerebellum [9]: nM levels | Ab1-42 (% of ctl) [5, 19]: 93.4 % of ctl | Ab1-42 (% of ctl) [5, 21]: 93.4 % of ctl | β-secretase activity in the brain [10]: selective decrease in β-secretase activity | γ-secretase activity in the brain [11]: no detectable change | α-secretase activity in the brain [12]: no detectable change | Aβ1-34, Aβ1-37, Aβ1-38, Aβ1-39, Aβ1-40 in the brain (IP-MS) [13]: dose-dependent reduction of most of the detectable Aβ species | Aβ1-42 content in the neocortex (IP-MS) [13]: dose dependent decrease in Aβ1-42 content | systolic, diastolic, MAP blood pressure [14, 22]: decreased systolic, diastolic, and MAP blood pressure | systolic, diastolic, MAP blood pressure [14, 23]: did not significantly influence either systolic, diastolic or MAP blood pressure

COC(=O)C1=C(C)NC(C)=C(C(=O)OCCN(C)Cc2ccccc2)C1c1cccc([N+](=O)[O-])c1 (stereo not drawn) [Nicardipine Hydrochloride]
EC50 ([1]; Mus musculus, Neuron, Table IV, dose-response 0.01-100 μM, read-out: EC50 (M): Ab-lowering activity): 0.000119 M | steady state levels of Aβ1-42 in hippocampal formation or cerebral cortex [6]: significantly reduced steady state levels of Aβ1-42 | MTT (% of ctl) [15, 19]: 52.4 % of ctl | MTT (% of ctl) [15, 24]: 52.4 % of ctl | plasma Aβ1-42 levels (and Aβ1-40) [7]: prevented plasma accumulation of Aβ1-42 levels | plasma Aβ1-42 (and Aβ1-40) [7]: lowering responses were found | activity at 100 µM ([3]; Mus musculus, Neuron, Primary Screening, drug 100 μM, table sorted by Aβ1-40): 10.7% | activity at 100 µM ([3]; Mus musculus, Neuron, primary screening, drug 100 μM, Tg2576 neuron cultures, table sorted by Aβ1-42): 10.7% | EC50 ([3]; Mus musculus, Neuron, Table IV, dose-response 0.01-100 μM, read-out: EC50 (M): Ab-lowering activity Abeta1-40): 3.64e-05 M | reduced Aβ1-40 ([3]; primary screening, <85% of ctl): reduced Aβ1-40 | fluid intake [8]: did not significantly influence the amount of fluid intake | activity at 100 µM [5, 19]: 27.6% | activity at 100 µM [5, 21]: 27.6% | reducing Aβ1-42 ([5]; primary screening): useful in reducing Aβ1-42 | LDH (% of ctl) [16, 19]: 104.2 % of ctl | LDH (at 5F-5 M) ([16]; Table IV): no change | LDH (% of ctl) [16, 24]: 104.2 % of ctl | systolic, diastolic, MAP blood pressure [14, 22]: decreased systolic, diastolic, and MAP blood pressure | systolic, diastolic, MAP blood pressure [14, 23]: did not significantly influence either systolic, diastolic or MAP blood pressure | systolic, diastolic, MAP blood pressure ([14]; Tg2576, any dose 3-18 mg/kg/day): No detectable changes

COc1cccc(OC)c1OCCNCC1COc2ccccc2O1.Cl (stereo not drawn) [2-(2,6-Dimethoxyphenoxyethyl) Aminomethyl-1,4-Benzodioxane Hydrochloride]
Ab1-42 (% of ctl) [1]: 94.7 % of ctl | LDH (% of ctl) [2]: 103.9 % of ctl | Ab1-40 (% of ctl) [3]: 82.6 % of ctl | reduced Aβ1-40 [3]: reduced Aβ1-40 | MTT (% of ctl) [4]: 95.5 % of ctl

Veratrine Sulfate
LDH (% of ctl) [2]: 124.4 % of ctl | Ab1-40 (% of ctl) [3, 18]: 58.5 % of ctl | reduced Aβ1-40 ([3]; primary screening, <85% of ctl): reduced Aβ1-40 | Ab1-40 (% of ctl) [3, 20]: 58.5 % of ctl | MTT (% of ctl) [4]: 84.4 % of ctl | Ab1-42 (% of ctl) [5, 19]: 87.1 % of ctl | Ab1-42 (% of ctl) [5, 21]: 87.1 % of ctl
